Test results reported in US7989394B2, “Substituted 1-(azolin-2-yl)-amino-2-aryl-1-hetaryl-ethane compounds” (BASF SE, priority 2006, dated 2011).

Tests used:
[1] = test system: Cotton Aphid (Aphis gossypii); assay: Cotton aphid (Aphis gossypii) mortality on dipped cotton plants; assay type: in vivo; details: 120 h, cotton cotyledons dipped, aphid mortality after 5 days, read-out: mortality in comparison with untreated controls
Description: I. Cotton Aphid (Aphis gossypii)
(§1) Cotton plants in the cotyledon stage (variety ‘Delta Pine’) are infested with approximately 100 laboratory-reared aphids by placing infested leaf sections on top of the test plants. The leaf sections are removed after 24 hours. The cotyledons of the intact plants are dipped into gradient solutions of the test compound. Aphid mortality on the treated plants, relative to mortality on check plants, is determined after 5 days.

[2] = test system: Green Peach Aphid (Myzus persicae); assay: Green peach aphid (Myzus persicae) mortality on dipped pepper plants; assay type: in vivo; details: 120 h, pepper leaves dipped, aphid mortality after 5 days, read-out: mortality in comparison with untreated controls
Description: II. Green Peach Aphid (Myzus persicae)
as §1, with “Pepper” for “Cotton”, “2nd leaf-pair” for “cotyledon”, “‘California Wonder’)” for “‘Delta Pine’)”, “40” for “100”, “leaves” for “cotyledons”

Row | Structure (SMILES) | mortality at 300 ppm [1] | mortality at 300 ppm [2]
1 | Cc1cc(C)cc(CC(NC2=NCCS2)c2ccco2)c1 (racemic) [Example 23, (4,5-Dihydro-thiazol-2-yl)-[2-(3,5-dimethyl-phenyl)-1-furan-2-yl-ethyl]-amine] | > 70% | > 70%
2 | Cc1cc(C)cc(CC(NC(=S)NCCO)c2cccs2)c1 (racemic) [Example 6, 1-[2-(3,5-Dimethyl-phenyl)-1-thien-2-yl-ethyl]-3-(2-hydroxy-ethyl)-thiourea] | > 70% | > 70%
3 | Cc1cc(C)cc(CC(NC2=NCCS2)c2cccs2)c1 (racemic) [Example 22, (4,5-Dihydro-thiazol-2-yl)-[2-(3,5-dimethyl-phenyl)-1-thien-2-yl-ethyl]-amine] | > 70% | > 70%
